Assay results published in PubChem BioAssay (NCI).
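Assay format: 96-well plates, 48-hour exposure. At the TGI there is no net growth.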 Where a SMILES comes first, the peptide text is derived from it. [ ]: non-standard residue; d: D form. The star is where a group is joined. Phe(4-NO2) = N[CH](Cc1ccc([N+](=O)[O-])cc1)C(=O)O; Boc = CC(C)(C)OC(=O)*

Key:
Test in all cases: growth of human tumour cells (NCI), 48 h
[1] = tested on: K-562 leukemia
[2] = tested on: 786-0 renal
[3] = tested on: OVCAR-8 ovarian
[4] = tested on: HOP-92 NSCLC
[5] = tested on: MOLT-4 leukemia
[6] = tested on: MDA-N
[7] = tested on: HCC-2998 colon
[8] = tested on: BT-549 breast
[9] = tested on: HCT-116 colon
[10] = tested on: COLO 205 colon
[11] = tested on: SK-MEL-5 melanoma
[12] = tested on: RPMI-8226 leukemia
[13] = tested on: NCI-H460 lung
[14] = tested on: NCI/ADR-RES ovarian
[15] = tested on: OVCAR-3 ovarian
[16] = tested on: SNB-19 CNS
[17] = tested on: ACHN renal
[18] = tested on: UO-31 renal
[19] = tested on: HL-60(TB) leukemia
[20] = tested on: HS 578T breast

`COc1ccc(Nc2nc3ccc(C(F)(F)F)cc3nc2C(=O)O)cc1` was tested, and the TGI [1] was > 100 µM, the TGI [2] was > 100 µM and the TGI [3] was > 100 µM. For the same compound, the TGI [4] was 92 µM, the TGI [5] was 98.6 µM and the TGI [6] was > 100 µM. The TGI [7] was 50 µM, the TGI [8] was 49.4 µM and the TGI [9] was > 100 µM. The TGI [10] was > 100 µM, the TGI [11] was > 100 µM and the TGI [12] was 66.5 µM. The TGI [13] was 83.7 µM, the TGI [14] was > 100 µM and the TGI [15] was 47.4 µM.
In the case of `N#C/C(C(=O)Nc1ccc(Cl)cc1)=C(/N)N1CCOCC1`, the TGI [1] is reported as > 100 µM, the TGI [2] is reported as > 100 µM and the TGI [16] is reported as > 100 µM. The TGI [3] was > 100 µM, the TGI [4] was > 100 µM and the TGI [5] was > 100 µM. The TGI [6] was > 100 µM, the TGI [17] was > 100 µM and the TGI [7] was > 100 µM. For the same compound, the TGI [18] was > 100 µM, the TGI [8] was > 100 µM and the TGI [9] was > 100 µM. For the same compound, the TGI [10] was > 100 µM, the TGI [11] was > 100 µM and the TGI [12] was > 100 µM. The TGI [13] was > 100 µM, the TGI [14] was > 100 µM and the TGI [15] was > 100 µM.
In the case of `CC(=O)O[C@H]1C(=O)[C@@]2(C)C(C(OC(=O)c3ccccc3)[C@]3(O)CC(OC(=O)C(O)C(NC(=O)c4ccccc4)c4cccc(Cl)c4)C(C)=C1C3(C)C)[C@]1(OC(C)=O)CO[C@@H]1C[C@@H]2O` (some centres undefined), the TGI [1] is reported as > 10 µM, the TGI [2] is reported as > 10 µM and the TGI [16] is reported as > 10 µM. The TGI [3] was > 10 µM, the TGI [5] was > 10 µM and the TGI [6] was 3.46 µM. For the same compound, the TGI [17] was > 10 µM, the TGI [7] was > 10 µM and the TGI [8] was > 10 µM. For the same compound, the TGI [9] was > 10 µM, the TGI [10] was > 10 µM and the TGI [11] was > 10 µM. For the same compound, the TGI [12] was 9.49 µM, the TGI [19] was 4.88 µM and the TGI [13] was > 10 µM. The TGI [14] was > 10 µM and the TGI [15] was > 10 µM.
For `CCOC(=O)CC(=O)CSc1c(-c2ccccc2)c(=O)n(-c2ccccc2)c(=S)n1-c1ccccc1`, the TGI [1] was > 100 µM, the TGI [2] was > 100 µM and the TGI [16] was > 100 µM. The TGI [3] was > 100 µM, the TGI [4] was > 100 µM and the TGI [5] was > 100 µM. For the same compound, the TGI [6] was > 100 µM, the TGI [17] was > 100 µM and the TGI [7] was > 100 µM. The TGI [18] was > 100 µM, the TGI [20] was > 100 µM and the TGI [9] was > 100 µM. The TGI [10] was > 100 µM, the TGI [19] was > 100 µM and the TGI [13] was > 100 µM. The TGI [14] was > 100 µM and the TGI [15] was > 100 µM.
With `N#CC1=C(N)OC(c2cccc([N+](=O)[O-])c2)C1(C#N)C#N` (centres undefined) the TGI [1] was > 100 µM, the TGI [2] was 28.1 µM and the TGI [16] was 42.5 µM. For the same compound, the TGI [3] was 92.8 µM, the TGI [4] was 32.3 µM and the TGI [6] was 62.6 µM. The TGI [17] was 33.2 µM, the TGI [7] was 35.2 µM and the TGI [18] was 32.8 µM. For the same compound, the TGI [20] was > 100 µM, the TGI [9] was 28.5 µM and the TGI [10] was 30.7 µM. The TGI [11] was 31.8 µM, the TGI [12] was 47 µM and the TGI [19] was > 100 µM. For the same compound, the TGI [14] was > 100 µM.
In the case of `O=C(N/N=C/c1ccc(Cl)cc1)c1ccccc1Nc1ccccc1C(=O)N/N=C/c1ccc(Cl)cc1`, the TGI [1] is reported as > 100 µM, the TGI [2] is reported as > 100 µM and the TGI [16] is reported as > 100 µM. For the same compound, the TGI [3] was > 100 µM, the TGI [4] was > 100 µM and the TGI [5] was > 100 µM. For the same compound, the TGI [6] was > 100 µM, the TGI [17] was > 100 µM and the TGI [7] was > 100 µM. For the same compound, the TGI [18] was > 100 µM, the TGI [8] was > 100 µM and the TGI [9] was > 100 µM. For the same compound, the TGI [10] was > 100 µM, the TGI [11] was > 100 µM and the TGI [12] was > 100 µM. For the same compound, the TGI [13] was > 100 µM, the TGI [14] was > 100 µM and the TGI [15] was > 100 µM.
With `O=C1N(CN2CCOCC2)CN(CN2CCOCC2)C(=O)N1Cc1ccc(CN2C(=O)N(CN3CCOCC3)CN(CN3CCOCC3)C2=O)cc1` the TGI [2] was > 100 µM, the TGI [16] was > 100 µM and the TGI [3] was > 100 µM. The TGI [4] was > 100 µM, the TGI [5] was > 100 µM and the TGI [6] was > 100 µM. For the same compound, the TGI [17] was > 100 µM, the TGI [7] was > 100 µM and the TGI [18] was > 100 µM. The TGI [20] was > 100 µM, the TGI [9] was > 100 µM and the TGI [10] was > 100 µM. The TGI [11] was > 100 µM, the TGI [12] was 89.5 µM and the TGI [19] was > 100 µM. The TGI [13] was > 100 µM, the TGI [14] was > 100 µM and the TGI [15] was > 100 µM.
`O=c1oc2c/c(=C\c3ccccn3)c(=O)c3cccc1c3-2` was tested, and the TGI [1] was > 100 µM, the TGI [2] was > 100 µM and the TGI [16] was > 100 µM. For the same compound, the TGI [3] was 54.4 µM, the TGI [4] was > 100 µM and the TGI [5] was > 100 µM. For the same compound, the TGI [6] was > 100 µM, the TGI [17] was > 100 µM and the TGI [7] was > 100 µM. For the same compound, the TGI [20] was > 100 µM, the TGI [9] was > 100 µM and the TGI [10] was > 100 µM. For the same compound, the TGI [11] was > 100 µM, the TGI [12] was > 100 µM and the TGI [19] was > 100 µM. The TGI [13] was > 100 µM, the TGI [14] was > 100 µM and the TGI [15] was 39.4 µM.
With `COC(=O)CCC(NC(=O)OC(C)(C)C)C(=O)NC(Cc1ccc([N+](=O)[O-])cc1)C(=O)NC(CCC(=O)OC)C(=O)OC` (centres undefined) (Boc-Glu(OMe)-[Phe(4-NO2)]-Glu(OMe)-OMe; configuration not given here) the TGI [1] was > 100 µM, the TGI [2] was > 100 µM and the TGI [16] was > 100 µM. The TGI [3] was > 100 µM, the TGI [4] was > 100 µM and the TGI [5] was 49.9 µM. The TGI [6] was > 100 µM, the TGI [17] was > 100 µM and the TGI [7] was > 100 µM. The TGI [18] was > 100 µM, the TGI [20] was > 100 µM and the TGI [9] was > 100 µM. The TGI [10] was > 100 µM, the TGI [11] was > 100 µM and the TGI [12] was 67.3 µM. For the same compound, the TGI [13] was > 100 µM, the TGI [14] was > 100 µM and the TGI [15] was > 100 µM.
In the case of `Cc1c(N=Nc2ccc(Cl)cc2)c(C)n(C2OC(CO)C(O)C(O)C2O)c(=S)c1C#N` (centres undefined), the TGI [1] is reported as 55.4 µM, the TGI [2] is reported as 37.4 µM and the TGI [16] is reported as > 100 µM. For the same compound, the TGI [3] was 63.9 µM, the TGI [4] was 71.4 µM and the TGI [5] was 42.3 µM. For the same compound, the TGI [6] was 50.4 µM, the TGI [17] was 55.5 µM and the TGI [7] was 58.7 µM. It also gave a TGI [18] of 57.9 µM, a TGI [20] of 83 µM and a TGI [9] of 29.1 µM. It also gave a TGI [10] of 40.6 µM, a TGI [11] of 21.8 µM and a TGI [12] of 50.3 µM. The TGI [19] was 58.3 µM, the TGI [13] was 87.4 µM and the TGI [14] was 47.1 µM. For the same compound, the TGI [15] was 34.2 µM.
